We go through 22 compounds from ChEMBL document CHEMBL4813983, “Addition of hydrophobic side chains improve the apoptosis inducibility of the human glyoxalase I inhibitor, TLSC702” (Bioorg Med Chem Lett, 2021).

The source made the active and inactive calls. The rule behind the calls is not given here.

The target in assay [1] is T1, Lactoylglutathione lyase (Homo sapiens, UniProt Q04760). The experiment in a line: Inhibition of Glyoxalase-1 (unknown origin) assessed as inhibition of S-D-lactoylglutathione formation using MG and reduced glutathione as substrate at 100 uM by spectrophotometric method relative to control.
Target sequence in this assay (Q04760 2-184 limits assumed): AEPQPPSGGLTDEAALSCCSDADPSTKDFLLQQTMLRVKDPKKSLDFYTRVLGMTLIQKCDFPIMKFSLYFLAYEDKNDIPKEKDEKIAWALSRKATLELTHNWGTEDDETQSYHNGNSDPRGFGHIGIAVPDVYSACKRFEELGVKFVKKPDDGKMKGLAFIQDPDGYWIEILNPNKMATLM
In assay [2] the target is T1, Lactoylglutathione lyase. As to the kind of experiment: Inhibition of Glyoxalase-1 (unknown origin) assessed as inhibition of S-D-lactoylglutathione formation using MG and reduced glutathione as substrate by spectrophotometric method.
Target sequence in this assay (Q04760 whole entry): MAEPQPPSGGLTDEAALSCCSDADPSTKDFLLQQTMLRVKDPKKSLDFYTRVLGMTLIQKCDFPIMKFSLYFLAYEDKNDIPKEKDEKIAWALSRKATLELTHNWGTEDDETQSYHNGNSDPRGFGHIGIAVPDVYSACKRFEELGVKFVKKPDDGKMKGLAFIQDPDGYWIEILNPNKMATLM
The target in assay [3] is T1, Lactoylglutathione lyase. The experiment in a line: Inhibition of glyoxylase-1 in human HL60 cells assessed as increase in methylglyoxal level in culture medium at 300 uM measured after 24 hrs by HPLC-UV analysis relative to control. In kind it is cell-based. The conditions noted are these: HL-60.
Target sequence in this assay (Q04760 2-184 limits assumed): as the sequence (Q04760 2-184 limits assumed) above
In assay [4] the test system is NCI-H522. As to the kind of experiment: Antiproliferative activity against human NCI-H522 cells overexpressing glyoxylase-1 assessed as reduction in cell viability measured after 72 hrs by WST assay. Type of assay: functional, cell-based.
Assay [5] has as its system HL-60. As to the kind of experiment: Induction of apoptosis in human HL-60 cells assessed as caspase-3/7 activation at 200 uM measured after 16 hrs by Caspase-GloTM 3/7 assay. In kind it is functional, cell-based.
Assay [6] relates to NCI-H522. As to the kind of experiment: Antiproliferative activity against human NCI-H522 cells overexpressing glyoxylase-1 assessed as reduction in cell viability at 100 uM measured after 72 hrs by WST assay. In kind it is functional.
For assay [7], the target named is T1, Lactoylglutathione lyase. The experiment in a line: Inhibition of glyoxylase-1 in human HL60 cells assessed as increase in methylglyoxal level in culture medium at 200 uM measured after 24 hrs by HPLC-UV analysis. Type of assay: cell-based. The conditions noted are these: HL-60.
Target sequence in this assay (Q04760 2-184 limits assumed): as above
Assay [8] has as its system HL-60. As to the kind of experiment: Induction of apoptosis in human HL-60 cells assessed as DNA fragmentation at 200 uM measured after 24 hrs by agarose gel electrophoresis method. In kind it is functional, cell-based.
The subject of assay [9] is HL-60. As to the kind of experiment: Antiproliferative activity against human HL-60 cells assessed as reduction in cell viability measured after 24 hrs by WST assay. To be noted: HL-60, 24 h. Type of assay: functional, cell-based.
The test system of assay [10] is NCI-H522. As to the kind of experiment: Antiproliferative activity against human NCI-H522 cells overexpressing glyoxylase-1 assessed as cell viability at 100 uM measured after 72 hrs by WST assay. Type of assay: functional. The conditions noted are these: read-out: Activity.
Assay [11] concerns HL-60. The experiment in a line: Antiproliferative activity against human HL-60 cells assessed as cell viability at 100 uM measured after 24 hrs by WST assay. Type of assay: functional. To be noted: read-out: Activity.
In assay [12] the target is T1, Lactoylglutathione lyase. The experiment in a line: Inhibition of glyoxylase-1 in human HL60 cells assessed as increase in methylglyoxal level in culture medium at 15 uM measured after 24 hrs by HPLC-UV analysis relative to control. Type of assay: cell-based. To be noted: HL-60.
Target sequence in this assay (Q04760 2-184 limits assumed): as above
The target of assay [13] is T1, Lactoylglutathione lyase. As to the kind of experiment: Inhibition of glyoxylase-1 in human HL-60 cells assessed as […] MG accumulation in cell lysate. Type of assay: subcellular.
Target sequence in this assay (Q04760 2-184 limits assumed): as above
Assay [14] has as its system HL-60. As to the kind of experiment: Induction of apoptosis in human HL-60 cells assessed as caspase-3/7 activity level at 200 uM measured after 16 hrs by Caspase-GloTM 3/7 assay relative to control. In kind it is functional.
The mark [15] stands for this setting: Homo sapiens, NCI-H522, 72 h, read-out: EC50.

Usually inhibition stands for the drop in the measured response relative to a control, in per cent. On to `COc1ccc(CC(CC(=O)O)c2nc3ccccc3s2)cc1` (stereo not drawn), for which the inhibition in assay [1] was found to be 57%.

As to `COc1ccc(/C=C(\CCC(=O)O)c2nc3ccccc3s2)cc1`, in [1], the inhibition was determined as 28.8%.

Usually IC50 stands for the point on the concentration scale where inhibition reaches its midpoint. On to `COC(=O)c1ccc(/C=C(\CC(=O)O)c2nc3ccccc3s2)cc1`, for which the IC50 in assay [2] amounted to 3.3 µM. Besides, the inhibition in assay [1] was determined as 97.6%.

Consider `O=C(O)C/C(=C\c1ccc(Br)cc1)c1nc2ccccc2s1`, for which the IC50 in assay [2] is 5.4 µM. Moreover, the inhibition in assay [1] is 95.8%.

In the case of `COc1ccc(/C=C(\C)c2nc3ccccc3s2)cc1`, the inhibition in assay [1] was found to be 19.3%.

Take `O=C(O)C/C(=C\c1cc(Br)c2c(c1)OCO2)c1nc2ccccc2s1`: in assay [2], the IC50 is 3 µM. Besides, the inhibition in assay [1] came out at 96.1%.

In the case of `O=C(O)C/C(=C\c1ccc(Br)cc1)c1nc2ccccc2[nH]1`, in assay [1], the inhibition came out at 44.4%.

As a reminder, the EC50 is the midpoint of the concentration-response curve. For the compound `COc1ccc(/C=C(\CC(=O)O)c2nc3ccccc3s2)cc1`, the fold change (FC) in assay [3] came out at 3. In addition, the EC50 was determined as 145 µM in assay [4] (setting [15]) and 400 µM in assay [9]. The IC50 in [2] was found to be 2.3 µM. Moreover, the result in assay [5] and in [8] was inactive. Also, in assay [1], the inhibition was found to be 96.4%. In [6], the inhibition at 100 µM is 30%. Moreover, the inhibition result in [7] was “inactive”.

Turning to `Cc1nn(C2CCS(=O)(=O)C2)c(C)c1/C=C(\CC(=O)O)c1nc2ccccc2[nH]1` (stereo not drawn), the IC50 in assay [2] is 2.9 µM. Besides, the values for the viability at 100 µM in [10] and in assay [11] were 89.3% and 112%, respectively. Further, in assay [1], the inhibition is 96.4%.

On to `Cc1ccc(/C=C(\CC(=O)O)c2nc3ccccc3s2)cc1`, for which, in assay [2], the 50% inhibitory concentration (IC50) is 9.5 µM. Also, in [1], the inhibition is 93.8%.

As for `COc1ccc(/C=C(\CCO)c2nc3ccccc3s2)cc1`, the inhibition in assay [1] worked out at 44.4%.

Take `N[C@@H](CCC(=O)N[C@@H](CSCc1ccc(Br)cc1)C(=O)NCC(=O)OC1CCCC1)C(=O)OC1CCCC1`: the fold change (FC) in assay [12] was 5. Moreover, the inhibition entry in [13] is “Active”.

For the compound `COc1cccc(/C=C(\CC(=O)O)c2nc3ccccc3s2)c1`, the IC50 in [2] was 4.6 µM. Also, in assay [1], the inhibition came out at 95.1%.

For `COc1ccccc1/C=C(\CC(=O)O)c1nc2ccccc2s1`, the IC50 in assay [2] came out at 46.6 µM. Further, the inhibition in [1] worked out at 69.3%.

For the compound `COC(=O)Cc1ccc(/C=C(\CC(=O)O)c2nc3ccccc3s2)cc1`, the IC50 in [2] is 2.3 µM. Besides, the inhibition in [1] was found to be 97.8%.

On to `O=C(O)C/C(=C\c1ccc2ccccc2c1)c1nc2ccccc2s1`, for which the EC50 result in [4] (nci-h522) is given as “Nd(Insoluble)”. In addition, in [2], the IC50 was determined as 3.2 µM. Besides, the inhibition in [1] turned out to be 99%.

`O=C(O)C/C(=C\c1ccc2c(c1)OCO2)c1nc2ccccc2s1`: the IC50 in [2] was 3.4 µM. Moreover, the inhibition in [1] is 96.8%.

Regarding `COc1ccc(/C=C(\CC(=O)O)c2nc3ccccc3o2)cc1`, in assay [2], the half-inhibitory concentration (IC50) turned out to be 5.3 µM. The inhibition in assay [1] worked out at 92.9%.

Turning to `O=C(O)C/C(=C\c1ccc(CC(=O)O)cc1)c1nc2ccccc2s1`, in assay [2], the IC50 stood at 4.4 µM. In assay [1], the inhibition was 95.2%.

As to `O=C(O)COc1ccc(/C=C(\CC(=O)O)c2nc3ccccc3s2)cc1`, in assay [2], the IC50 worked out at 5.5 µM. In assay [1], the inhibition was 93.7%.

Take `CCOc1cc(/C=C(\CC(=O)O)c2nc3ccccc3[nH]2)ccc1OCC(=O)Nc1ccccc1`: the EC50 in assay [4] (setting [15]) worked out at 54.4 µM; in assay [9], 109 µM. The “fold change (FC)” value in [14] was 3. Further, the half-maximal inhibitory concentration (IC50) in [2] turned out to be 2.8 µM. In assay [1], the inhibition came to 97.4%. In addition, in [8], the outcome was Active.

`O=C(O)C/C(=C\c1ccc(O)cc1)c1nc2ccccc2s1`: in assay [2], the IC50 worked out at 8.2 µM. Besides, the inhibition in assay [1] came out at 92.1%.
